{
  "source": "patent US20040234962A1",
  "about": "“Multicoated or multilayer entrapment matrix for protein biosensor” (priority 2003, published 2004)",
  "test": "Fluorescence intensity of NBD-GGBP-CMC in presence and absence of glucose",
  "format": "biochemical",
  "settings": "100 nM preparation, 20 mM glucose; FIG. 6",
  "protocol": "Covalent attachment was performed by activating carboxymethyl groups on the hydrogel polymer (CMC) with a mixture of N-hydroxysuccinimide (NHS) and N-ethyl-N′-(dimethylaminopropyl) carbodiimide (EDC). This forms an intermediate that is reactive to amines. NHS (100 mM) and EDC (400 mM) in water were mixed in a 1:1 vol:vol ratio. An equal volume of hydrogel polymer (25 mg/mL CMC in H2O) and the EDC/NHS mixture were combined, and incubated at room temperature for 15 to 30 minutes. The unreacted EDC and NHS were removed from the hydrogel polymer by eluting the polymer from a NAP-5 column. Varying amounts of activated hydrogel polymer were combined with the fluorescently-labeled GGBP (in this example, the NBD-A213C/L238C-GGBP-His6 mutant). The activated hydrogel polymer and protein were gently mixed, at room temperature, for 1 to 2 hours. […] An absorbance scan of solution not retained by the 100 kDa filter indicated no unattached protein remained. […] Activity of the NBD-GGBP-CMC was determined by fluorescence intensity measurement of the NBD-GGBP-CMC in the presence of high concentration glucose (20 mM) and in the absence of glucose. Thus, 100 nM preparations of the NBD-GGBP-CMC, as well as unattached NBD-GGBP (control) were measured before and after the addition of glucose (FIG. 6). […]",
  "data": [
    {"substance": "NBD-GGBP-CMC: NBD-labeled GGBP randomly covalently attached to carboxymethyl cellulose hydrogel polymer via EDC/NHS", "values": [
      {"measurement": "signal in the presence of glucose compared to the absence of glucose", "result": "strong signal"}
    ]}
  ]
}
